What all share (type): functional, cell-based
In test [1] the test system is B-cell line. In words: Immunosuppressive activity in BALB/c mouse B cells assessed as inhibition of LPS-induced cell proliferation by measuring reduction in uptake of [3H]-thymidine after 8 hrs by beta scintillation counting method.
Test [2] deals with MCF7. In words: Cytotoxicity against human MCF7 cells assessed as reduction in cell viability at 40 uM after 48 hrs by MTT assay. A general note: Tetrazolium dyes change colour on reduction, which living cells bring about.
Test [3] has as its system HL-60. In words: Cytotoxicity against human HL60 cells assessed as reduction in cell viability at 40 uM after 48 hrs by MTT assay.
The subject of test [4] is SW480. In words: Cytotoxicity against human SW480 cells assessed as reduction in cell viability at 40 uM after 48 hrs by MTT assay.
Test [5] deals with SMMC-7721. In words: Cytotoxicity against human SMMC7721 cells assessed as reduction in cell viability at 40 uM after 48 hrs by MTT assay.
Test [6] relates to A549. In words: Cytotoxicity against human A549 cells assessed as reduction in cell viability at 40 uM after 48 hrs by MTT assay.
Test [7] has as its system RAW264.7. In words: Inhibition of NO production in mouse RAW264.7 macrophages at 40 uM incubated for 18 hrs by Griess reagent based assay. On the technique in general: Griess reagent forms a coloured azo dye with nitrite.
Test [8] deals with HL-60. In words: Cytotoxicity against human HL60 cells assessed as reduction in cell viability up to 40 uM after 48 hrs by MTT assay.
Test [9] has as its system MCF7. In words: Cytotoxicity against human MCF7 cells assessed as reduction in cell viability up to 40 uM after 48 hrs by MTT assay.
Test [10] concerns A549. In words: Cytotoxicity against human A549 cells assessed as reduction in cell viability up to 40 uM after 48 hrs by MTT assay.
The test system of test [11] is SMMC-7721. In words: Cytotoxicity against human SMMC7721 cells assessed as reduction in cell viability up to 40 uM after 48 hrs by MTT assay.
Test [12] deals with SW480. In words: Cytotoxicity against human SW480 cells assessed as reduction in cell viability up to 40 uM after 48 hrs by MTT assay.
Test [13] relates to RAW264.7. In words: Inhibition of NO production in mouse RAW264.7 macrophages incubated for 18 hrs by Griess reagent based assay. The settings on record: RAW264.7, 18 h.
For test [14], the system named is T-cell. In words: Immunosuppressive activity in BALB/c mouse T cells assessed as inhibition of ConA-induced cell proliferation by measuring reduction in uptake of [3H]-thymidine after 8 hrs by beta scintillation counting method.

Here are results for eleven compounds from ChEMBL document CHEMBL4616661, “Sesquiterpenoids from Cultures of the Basidiomycetes Irpex lacteus” (J Nat Prod, 2020).

What is called IC50 is the point on the concentration scale where inhibition reaches its midpoint.

Active and inactive are the calls of the source. The calls are words filed in the database; no cut-off is given here.

Consider `Cc1ccc2c(c1)[C@H](C)C[C@H](O)[C@@H]1C(=O)OC[C@@H]21`, for which, in test [1], the IC50 worked out at 22.4 µM. For the same compound, the result in [2], in test [3], in test [4], in test [5] and in [6] was inactive. Moreover, the inhibition result in test [7] is “inactive”.

In the case of `C[C@@H]1C[C@H](O)C2=C(COC2=O)C2=C[C@](C)(CO)C[C@@H]21`, the outcome in test [8], in test [9], in test [10], in test [11] and in [12] was Active. In addition, the inhibition result in test [7] is “inactive”.

As for `C[C@@H]1C[C@H](O)C2=C(COC2=O)C2=CC(C)(C)C[C@@H]21`, the outcome in [8], in test [9], in test [10], in [11] and in [12] was Active. Further, in test [7], the inhibition entry was “inactive”.

For the compound `C[C@H]1CCC2=C(COC2=O)[C@@H]2CC(C)(C)[C@H](O)[C@@H]12`, the result in test [8], in [9], in test [10], in test [11] and in test [12] was Active. For the same compound, the inhibition result in test [7] is “inactive”.

On to `C[C@@H]1C[C@H](O)C2=C(COC2=O)[C@]23O[C@H]2C(C)(C)C[C@]13O`, for which the result in test [2], in test [3], in [4], in test [5] and in test [6] was inactive. Moreover, the inhibition entry in test [7] was “inactive”.

Turning to `C[C@@H]1C[C@H](O)C2=C(COC2=O)[C@]23O[C@H]2C(C)(C)C[C@H]13`, the outcome in test [2], in test [3], in test [4], in test [5] and in test [6] was inactive. In addition, in test [7], the inhibition result is “inactive”.

Take `C[C@H]1[C@H]2CC(C)(C)C[C@@H]2C2=C(C[C@@H]1O)C(=O)OC2`: the outcome in test [2], in test [3], in test [4], in [5] and in [6] was inactive. Further, the inhibition result in test [7] is “inactive”.

With `C[C@H]1C[C@@H](O)C2=C(COC2=O)[C@@H]2CC(C)(C)C[C@@H]12`, the result in test [2], in [3], in test [4], in test [5] and in test [6] was inactive. For the same compound, the inhibition entry in test [7] was “inactive”.

In the case of `C[C@@H]1CC[C@H]2C(C(=O)O)=C[C@@H]3C[C@@](C)(C(=O)O)C[C@@]132`, the result in [2], in test [3], in test [4], in test [5] and in [6] was inactive. The compound further returned an IC50 in [13] of 22.7 µM.

Consider `C[C@H]1CCC2=C(COC2=O)[C@@]2(O)CC(C)(C)C[C@@H]12`, for which the result in test [8], in test [9], in test [10], in [11] and in [12] was Active. Moreover, the inhibition result in test [7] is “inactive”.

For `Cc1cc2c(cc1O)C1=C(CC[C@H]2C)C(=O)OC1`, the IC50 in test [14] turned out to be 16.7 µM; in test [1], 13.6 µM. The result in test [2], in test [3], in test [4], in [5] and in [6] was inactive. Besides, the inhibition entry in test [7] is “inactive”.
